Test results as given in patent publication US20250177383A1, “DI-CYCLOPROPYL BASED IL-17A MODULATORS AND USES THEREOF” (DICE ALPHA, INC., priority 2022, published 2025).

Key:
IL-17A/A = biological target: T1, IL-17A/A (Homo sapiens, UniProt Q16552); assay: IL-17A/A HEK-Blue Cell Assay; format: cell-based; conditions: HEK-Blue IL-17 reporter cells, IL-17A/A stimulation, 20 hours, SEAP readout; read-out: IL17 AA HEK-5 pIC50 (converted)
T1 sequence (Q16552 24-155): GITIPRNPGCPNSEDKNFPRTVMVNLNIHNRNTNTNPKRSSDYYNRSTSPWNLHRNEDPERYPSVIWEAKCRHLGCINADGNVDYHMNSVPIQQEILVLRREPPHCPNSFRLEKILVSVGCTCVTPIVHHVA
Outline: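 Cells co-expressing IL-17RA, IL-17RC and Act1 received titrated compound, top final 10 uM in 0.1% DMSO, immediately before IL-17A/A stimulation.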

IL-17A/F = biological target: T2, IL-17A/F (Homo sapiens, UniProt Q16552+Q96PD4); assay: IL-17A/F HEK-Blue Cell Assay; format: cell-based; conditions: HEK-Blue IL-17 reporter cells, IL-17A/F stimulation, 20 hours, SEAP readout; for IC50: read-out: IL17AF HEK Blue pIC50 (converted)
T2 sequence (Q16552 24-155): T1 sequence (Q16552 24-155)
T2 sequence (Q96PD4 31-163): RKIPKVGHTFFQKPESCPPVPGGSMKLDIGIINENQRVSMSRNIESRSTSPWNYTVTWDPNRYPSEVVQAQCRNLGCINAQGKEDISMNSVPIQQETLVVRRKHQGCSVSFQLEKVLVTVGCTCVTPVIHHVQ
Procedure: The HEK-Blue IL-17 reporter cell line (Fisher #NC1408637) was used for cell-based IL-17A/F inhibition assays. Cells were grown and prepared for assays according to the manufacturer's instructions. This cell line consists of HEK 293 cells that were designed to expressed IL-17RA, IL-17R^C, and the ActI adapter molecule, the combination of which, when stimulated by IL-17A/A activates a NFκB promoter and drives expression of a recombinant Secreted Alkaline Phosphatase (SEAP) geneprotein. Media from the cells is then added to a development reagent (Quanti-Blue Substrate, Fisher #NC9711613), and read at A630.
Compounds were titrated in DMSO and added to the cells immediately before adding IL-17A/A (Custom from R&D systems, untagged IL-17A/F+BSA as a carrier protein). The cells, compound, and IL-17A/A were then incubated for 20 hours before media was removed for SEAP analysis. The resulting inhibition curve was then analyzed using a Dotmatics screening protocol, and IC50 values were determined using a 4-parameter nonlinear fit. DMSO was added to a universal final concentration of 0.1% to optimize background.

| SMILES | IC50 (IL-17A/A) [µM] | IC50 (IL-17A/F) [µM] | IL17AF HEK Blue pIC50 (IL-17A/F) |
| --- | --- | --- | --- |
| COCC(=O)N[C@@H](C(=O)N1CCN(C)[C@H](C)C1)[C@@H](C)c1ccc(NC(=O)[C@@H](NC(=O)c2nonc2C)C(C2CC2)C2CC2)c(F)c1 [Compound 348] | < 0.01 | 0.1 to 10 | – |
| CCn1nccc1C(=O)N[C@H](C(=O)Nc1ccc([C@H](C)[C@@H](NC(=O)C(C)Cc2cc(O)no2)C(=O)N2CCN(C)[C@H](C)C2)cc1F)C(C1CC1)C1CC1 (single isomer, unassigned) [Compound 344] | < 0.01 | 0.01 to 0.1 | – |
| CCOC(=O)N[C@@H](C)C(=O)N[C@@H](C(=O)N1CCN(C)CC1)[C@@H](C)c1ccc(NC(=O)[C@@H](NC(=O)c2nonc2C)C(C2CC2)C2CC2)c(F)c1 [Compound 361] | < 0.01 | 0.01 to 0.1 | – |
| CCC(OC)C(=O)N[C@@H](C(=O)N1CCN(C)[C@H](C)C1)[C@@H](C)c1ccc(NC(=O)[C@@H](NC(=O)C2(F)CC2)C(C2CC2)C2CC2)c(F)c1 (single isomer, unassigned) [Compound 337] | < 0.01 | – | C (7>C≥5) |
| CCn1nccc1C(=O)N[C@H](C(=O)Nc1ccc([C@H](C)[C@@H](NC(=O)C(C)Cc2cc(O)no2)C(=O)N2CCN(C)[C@H](C)C2)cc1F)C(C1CC1)C1CC1 (single isomer, unassigned) [Compound 343] | 0.01 to 0.1 | 0.1 to 10 | – |
| CCOC(=O)N[C@@H](CF)C(=O)N[C@@H](C(=O)N1CCN(C)[C@H](C)C1)[C@@H](C)c1ccc(NC(=O)[C@@H](NC(=O)c2nonc2C)C(C2CC2)C2CC2)c(F)c1 [Compound 363] | < 0.01 | 0.01 to 0.1 | – |
| CCn1nccc1C(=O)N[C@H](C(=O)Nc1ccc([C@H](C)[C@@H](NC(=O)COC)C(=O)N2CCN(C)C[C@@H]2C)cc1F)C(C1CC1)C1CC1 [Compound 283] | < 0.01 | 0.01 to 0.1 | – |
| COC(=O)N1CCC[C@H]1C(=O)N[C@@H](C(=O)N1CCN(C)CC1)[C@@H](C)c1ccc(NC(=O)[C@@H](NC(=O)C2(F)CC2)C(C2CC2)C2CC2)c(F)c1 [Compound 280] | 0.01 to 0.1 | 0.1 to 10 | – |
| CCOC(C)C(=O)N[C@@H](C(=O)N1CCN(C)CC1)[C@@H](C)c1ccc(NC(=O)[C@@H](NC(=O)c2ccnn2CC)C(C2CC2)C2CC2)c(F)c1 (single isomer, unassigned) [Compound 328] | < 0.01 | 0.01 to 0.1 | – |
| CO[C@@H](C)C(=O)N[C@@H](C(=O)N1CCN(C)[C@H](C)C1)[C@@H](C)c1ccc(NC(=O)[C@@H](NC(=O)c2nonc2C)C(C2CC2)C2CC2)c(F)c1 [Compound 308] | < 0.01 | 0.1 to 10 | – |
| CCOC(=O)N[C@@H](C)C(=O)N[C@@H](C(=O)N1CCN(C)CC1)[C@@H](C)c1ccc(NC(=O)[C@@H](NC(=O)C2(F)CC2)C(C2CC2)C2CC2)c(F)c1 [Compound 269] | < 0.01 | 0.1 to 10 | – |
| CCn1nccc1C(=O)N[C@H](C(=O)Nc1ccc([C@H](C)[C@@H](NC(=O)C(C)OCCOC)C(=O)N2CCN(C)CC2)cc1F)C(C1CC1)C1CC1 (single isomer, unassigned) [Compound 314] | 0.1 to 10 | 0.1 to 10 | – |
| COCC(=O)N[C@@H](C(=O)N1CCN(C)CC1)[C@@H](C)c1ccc(NC(=O)[C@@H](NC(=O)c2ccnn2C(C)C)C(C2CC2)C2CC2)c(F)c1 [Compound 345] | < 0.01 | 0.01 to 0.1 | – |
| CCn1nccc1C(=O)N[C@H](C(=O)Nc1ccc([C@H](C)[C@@H](NC(=O)C(C)C2CC2)C(=O)N2CCN(C)CC2)cc1F)C(C1CC1)C1CC1 (single isomer, unassigned) [Compound 317] | < 0.01 | 0.01 to 0.1 | – |
| CCn1nccc1C(=O)N[C@H](C(=O)Nc1ccc([C@H](C)[C@@H](NC(=O)[C@H](C)OC)C(=O)N2C[C@@H](C)N(C)C[C@H]2C)cc1F)C(C1CC1)C1CC1 [Compound 287] | < 0.01 | < 0.01 | – |
| CCOC(=O)N[C@@H](CF)C(=O)N[C@@H](C(=O)N1CCN(C)[C@H](C)C1)[C@@H](C)c1ccc(NC(=O)[C@@H](NC(=O)C2(F)CC2)C(C2CC2)C2CC2)c(F)c1 [Compound 358] | < 0.01 | 0.1 to 10 | – |
